Data on 19 compounds can be found in US11667606B2, “Thyromimetics” (Autobahn Therapeutics, Inc., priority 2019, dated 2023).

In one experiment the target is T1, TRβ (Homo sapiens, UniProt P10828).
T1 construct: expressed in transfected cells; host or cells: HEK293
T1 sequence (P10828 217-461 limits assumed): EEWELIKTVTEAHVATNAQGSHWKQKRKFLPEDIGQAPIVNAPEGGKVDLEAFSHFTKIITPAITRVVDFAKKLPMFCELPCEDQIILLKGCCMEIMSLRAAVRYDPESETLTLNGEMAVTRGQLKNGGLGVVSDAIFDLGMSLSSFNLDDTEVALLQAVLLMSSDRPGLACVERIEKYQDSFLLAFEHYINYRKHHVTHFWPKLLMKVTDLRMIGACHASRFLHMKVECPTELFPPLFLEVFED
The experiment is described as follows: Thyroid-hormone reporter-gene assay, TRβ (Gal4 DBD hybrid, luciferase, HEK293). Type of experiment: cell-based. The following applies: for T3-SI, selectivity index (SI) calculated as EC50 (TRα)/EC50 (TRβ): TRβ over TRα selectivity from reporter-gene EC50 values; for EC50: reporter cells derived from HEK293, 24 hr incubation, luciferase readout. On the procedure:
(§1) Compounds were tested for thyroid-hormone receptor activity using TR reporter-gene assays. Reporter cells used in the assays express a TR-receptor hybrid (either TRα or TRβ) in which the native N-terminal DNA binding domain (DBD) has been replaced with that of the yeast Gal4 DBD. The reporter gene, firefly luciferase, is functionally linked to the Gal4 upstream activation sequence (UAS). Both cell lines were derived from human embryonic kidney (HEK293).
(§2) A suspension of reporter cells was prepared in cell recovery medium containing 10% charcoal-stripped FBS, and dispensed into assay plates. The plates were pre-incubated for 6 hours in a cell culture incubator (37° C./5% CO2/85% humidity).
(§3) These intermediate stocks were subsequently diluted directly into compound screening medium containing 10% charcoal-stripped FBS to generate “2×-concentration” treatment media (containing 0.2, 0.4 or 0.8% DMSO).
(§4) At the end of the pre-incubation period, culture media were discarded from the assay plates, and all wells received 100 μl of compound screening medium. 100 μl of each of the previously prepared “2×-concentration” treatment media were dispensed into duplicate assay wells, thereby achieving the desired final treatment concentrations. The final concentration of DMSO in all assay wells was 0.1, 0.2 or 0.4%. Assay plates were incubated for 24 hr in a cell culture incubator (37° C./5% CO2/85% humidity).
(§5) At the 24 h assay endpoint, treatment media were discarded and […] of luciferase detection reagent was added. Relative luminometer units (RLUs) were quantified from each assay well.

In a further experiment the target is T2, TRα (Homo sapiens, UniProt P10827).
T2 construct: expressed in transfected cells; host or cells: HEK293
T2 sequence (P10827 128-410 isoform P10827-2 limits assumed): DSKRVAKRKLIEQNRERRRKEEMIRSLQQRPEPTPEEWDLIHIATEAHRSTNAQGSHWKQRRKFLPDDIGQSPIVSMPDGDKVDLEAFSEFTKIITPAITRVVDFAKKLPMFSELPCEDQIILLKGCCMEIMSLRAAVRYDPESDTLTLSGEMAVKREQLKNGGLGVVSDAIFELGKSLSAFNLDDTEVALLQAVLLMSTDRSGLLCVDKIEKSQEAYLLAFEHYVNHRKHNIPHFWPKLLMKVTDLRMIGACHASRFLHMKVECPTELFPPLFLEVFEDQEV
The experiment is described as follows: Thyroid-hormone reporter-gene assay, TRα (Gal4 DBD hybrid, luciferase, HEK293). The class given is cell-based. The following applies: reporter cells derived from HEK293, 24 hr incubation, luciferase readout. The protocol:
as §1, §2, §3, §4, §5

A word on the EC50: it is the concentration at which the effect is half-maximal. Low values mean a more potent agent, high ones a less potent agent. Consider `C[C@@H](c1ccc(F)cc1)c1cc(Cc2c(Cl)cc(OCC(=O)O)cc2Cl)ccc1O` (single isomer, unassigned) [Compound 74], for which, at TRβ, the “T3-SI, selectivity index (SI) calculated as EC50 (TRα)/EC50 (TRβ)” value (shortened to “T3-SI, selectivity index (SI) calculated”) is recorded as “++ (3X < T3-SI ≤ 30X)” and the EC50 is 100 to 1000 nM. Besides, the EC50 on TRα was more than 1000 nM.
Taken in the same sequence, the figures for `C[C@H](c1ccc(F)cc1)c1cc(Cc2c(Cl)cc(OCC(=O)O)cc2Cl)ccc1O` (single isomer, unassigned) [Compound 75] were “++ (3X < T3-SI ≤ 30X)”, less than 10 nM and 10 to 100 nM.
For `O=C(O)COc1cc(Cl)c(Cc2ccc(O)c(-c3cccc(C(F)(F)F)c3)c2)c(Cl)c1` [Compound 1, 2-(3,5-dichloro-4-((6-hydroxy-3′-(trifluoromethyl)-[1,1′-biphenyl]-3-yl)methyl)phenoxy)acetic Acid], in that order: “++ (3X < T3-SI ≤ 30X)”, 100 to 1000 nM and 100 to 1000 nM.
For `CCc1cccc(-c2cc(Cc3c(Cl)cc(OCC(=O)O)cc3Cl)ccc2O)c1` [Compound 3, 2-(3,5-dichloro-4-((3′-ethyl-6-hydroxy-[1,1′-biphenyl]-3-yl)methyl)phenoxy)acetic Acid], in that order: “+++ (T3-SI > 30X)”, 100 to 1000 nM and more than 1000 nM.
For the compound `O=C(O)COc1cc(Cl)c(Cc2ccc(O)c(-c3cccc(OC(F)F)c3)c2)c(Cl)c1` [Compound 5, 2-(3,5-dichloro-4-((3′-(difluoromethoxy)-6-hydroxy-[1,1′-biphenyl]-3-yl)methyl)phenoxy)acetic Acid], on TRβ, the “T3-SI, selectivity index (SI) calculated” value is “+++ (T3-SI > 30X)” and the EC50 lay within 100 to 1000 nM. The EC50 at TRα is more than 1000 nM.
`COc1cccc(-c2cc(Cc3c(Cl)cc(OCC(=O)O)cc3Cl)ccc2O)c1` [Compound 7, 2-(3,5-dichloro-4-((6-hydroxy-3′-methoxy-[1,1′-biphenyl]-3-yl)methyl)phenoxy)acetic Acid]: at TRβ, the “T3-SI, selectivity index (SI) calculated” value was “++ (3X < T3-SI ≤ 30X)” and the EC50 is more than 1000 nM. On TRα, the EC50 was more than 1000 nM.
In the case of `CC(=O)c1cccc(-c2cc(Cc3c(Cl)cc(OCC(=O)O)cc3Cl)ccc2O)c1` [Compound 11, 2-(4-((3′-acetyl-6-hydroxy-[1,1′-biphenyl]-3-yl)methyl)-3,5-dichlorophenoxy)acetic Acid], the EC50 at TRβ and on TRα was more than 1000 nM throughout.
With `O=C(O)COc1cc(Cl)c(Cc2ccc(O)c(-c3cccc(OC(F)(F)F)c3)c2)c(Cl)c1` [Compound 12, 2-(3,5-dichloro-4-((6-hydroxy-3′-(trifluoromethoxy)-[1,1′-biphenyl]-3-yl)methyl)phenoxy)acetic Acid], on TRβ, the “T3-SI, selectivity index (SI) calculated” value is given as “+++ (T3-SI > 30X)” and the EC50 was in the range of 100 to 1000 nM. Also, the EC50 on TRα was more than 1000 nM.
Taken in the same sequence, the figures for `CC(C)c1cccc(-c2cc(Cc3c(Cl)cc(OCC(=O)O)cc3Cl)ccc2O)c1` [Compound 13, 2-(3,5-dichloro-4-((6-hydroxy-3′-isopropyl-[1,1′-biphenyl]-3-yl)methyl)phenoxy)acetic Acid] were “+++ (T3-SI > 30X)”, 100 to 1000 nM and more than 1000 nM.
For `CCCc1cccc(-c2cc(Cc3c(Cl)cc(OCC(=O)O)cc3Cl)ccc2O)c1` [Compound 16, 2-(3,5-dichloro-4-((6-hydroxy-3′-propyl-[1,1′-biphenyl]-3-yl)methyl)phenoxy)acetic Acid], in that order: “+++ (T3-SI > 30X)”, 100 to 1000 nM and more than 1000 nM.
Taken in the same sequence, the figures for `Cc1cccc(-c2cc(Cc3c(Cl)cc(OCC(=O)O)cc3Cl)ccc2O)c1` [Compound 17, 2-(3,5-dichloro-4-((6-hydroxy-3′-methyl-[1,1′-biphenyl]-3-yl)methyl)phenoxy)acetic Acid] were “++ (3X < T3-SI ≤ 30X)”, 100 to 1000 nM and more than 1000 nM.
With `N#Cc1cccc(-c2cc(Cc3c(Cl)cc(OCC(=O)O)cc3Cl)ccc2O)c1` [Compound 19, 2-(3,5-dichloro-4-((3′-cyano-6-hydroxy-[1,1′-biphenyl]-3-yl)methyl)phenoxy)acetic Acid], at TRβ, the “T3-SI, selectivity index (SI) calculated” value is listed as “++ (3X < T3-SI ≤ 30X)” and the EC50 is 10 to 100 nM. On TRα, this compound gave an EC50 of 100 to 1000 nM.
For `C=Cc1cccc(-c2cc(Cc3c(Cl)cc(OCC(=O)O)cc3Cl)ccc2O)c1` [Compound 21, 2-(3,5-dichloro-4-((6-hydroxy-3′-vinyl-[1,1′-biphenyl]-3-yl)methyl)phenoxy)acetic Acid], in that order: “++ (3X < T3-SI ≤ 30X)”, 100 to 1000 nM and more than 1000 nM.
For the compound `C=C(C)c1cccc(-c2cc(Cc3c(Cl)cc(OCC(=O)O)cc3Cl)ccc2O)c1` [Compound 22, 2-(3,5-dichloro-4-((6-hydroxy-3′-(prop-1-en-2-yl)-[1,1′-biphenyl]-3-yl)methyl)phenoxy)acetic Acid], the EC50 on TRβ and at TRα was more than 1000 nM in each case.
Consider `O=C(O)COc1cc(Cl)c(Cc2ccc(O)c(-c3cccc(CC(F)(F)F)c3)c2)c(Cl)c1` [Compound 26, 2-(3,5-dichloro-4-((6-hydroxy-3′-(2,2,2-trifluoroethyl)-[1,1′-biphenyl]-3-yl)methyl)phenoxy)acetic Acid], for which, on TRβ, the “T3-SI, selectivity index (SI) calculated” value is reported as “+++ (T3-SI > 30X)” and the EC50 is 100 to 1000 nM. At TRα, this compound displayed an EC50 of more than 1000 nM.
Taken in the same sequence, the figures for `O=C(O)COc1cc(Cl)c(Cc2ccc(O)c(-c3cccc(Cl)c3)c2)c(Cl)c1` [Compound 29, 2-(3,5-dichloro-4-((3′-chloro-6-hydroxy-[1,1′-biphenyl]-3-yl)methyl)phenoxy)acetic Acid] were “++ (3X < T3-SI ≤ 30X)”, 10 to 100 nM and 100 to 1000 nM.
For `O=C(O)COc1cc(Cl)c(Cc2ccc(O)c(-c3cccs3)c2)c(Cl)c1` [Compound 34, 2-(3,5-dichloro-4-(4-hydroxy-3-(thiophen-2-yl)benzyl)phenoxy)acetic acid], in that order: “++ (3X < T3-SI ≤ 30X)”, 100 to 1000 nM and more than 1000 nM.
Taken in the same sequence, the figures for `O=C(O)COc1cc(Cl)c(Cc2ccc(O)c(-c3cc(Cl)cs3)c2)c(Cl)c1` [Compound 36, 2-(3,5-dichloro-4-(3-(4-chlorothiophen-2-yl)-4-hydroxybenzyl)phenoxy) acetic Acid] were “++ (3X < T3-SI ≤ 30X)”, more than 1000 nM and more than 1000 nM.
On to `O=C(O)COc1cc(Cl)c(Cc2ccc(O)c(-c3ccco3)c2)c(Cl)c1` [Compound 38, 2-(3,5-dichloro-4-(3-(furan-2-yl)-4-hydroxybenzyl)phenoxy)acetic acid], for which, at TRβ, the “T3-SI, selectivity index (SI) calculated” value is “++ (3X < T3-SI ≤ 30X)” and the EC50 was more than 1000 nM. The compound also gave an EC50 at TRα of more than 1000 nM.
